Literature values, collected in patent US10539496B2, “Instrument and method for optical particle sensing” (Invitrox, Inc., priority 2011, dated 2020).

Test system: platelets
Conditions: platelet inhibition in arterial thrombophilic diseases; share of drug-treated patients

CC(=O)Oc1ccccc1C(=O)O [ASA, Aspirin]
treated patients who do not respond to treatment: Approximately 25%

COC(=O)[C@H](c1ccccc1Cl)N1CCc2sccc2C1 [Plavix, clopidogrel bisulfate]
treated patients who do not respond to treatment: ~29%
